Test results published in ChEMBL document CHEMBL1201862, “PubChem BioAssay data set” (2004).
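Method: 48-hour compound exposure of cells in 96-well plates, five concentrations, linear interpolation of endpoints. The concentration for 50% growth inhibition is given as GI50.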 The source made the active and inactive calls. Rule as the data show it: active = GI50 up to about 1.1 µM and inactive = higher.

How the values were obtained:
Experiment in all cases: inhibition of tumour cell growth, NCI panel, 48 h
OVCAR-5 = system: OVCAR-5
SK-MEL-28 = system: SK-MEL-28
Malme-3M = system: Malme-3M
M14 = system: M14
BT-549 = system: BT-549
HL-60 = system: HL-60
OVCAR-8 = system: OVCAR-8
SK-MEL-5 = system: SK-MEL-5
SF-539 = system: SF-539
A498 = system: A498
HCT-15 = system: HCT-15
RXF 393 = system: RXF 393
MDA-N = system: MDA-N
SK-OV-3 = system: SK-OV-3
NCI-H226 = system: NCI-H226
KM-20L2 = system: KM-20L2
UO-31 = system: UO-31
HCT-116 = system: HCT-116
XF498 = system: XF498
HOP-18 = system: HOP-18
OVCAR-3 = system: OVCAR-3
LXFL 529 = system: LXFL 529
SN12C = system: SN12C
SR = system: SR
HCC 2998 = system: HCC 2998
DMS-114 = system: DMS-114
MDA-MB-435 = system: MDA-MB-435
COLO 205 = system: COLO 205
786-0 = system: 786-0
ACHN = system: ACHN
SNB-78 = system: SNB-78
PC-3 = system: PC-3
OVCAR-4 = system: OVCAR-4
U-251 = system: U-251
KM12 = system: KM12
MOLT-4 = system: MOLT-4
SNB-19 = system: SNB-19
IGROV-1 = system: IGROV-1
T47D = system: T47D
MDA-MB-231 = system: MDA-MB-231
M19-MEL = system: M19-MEL
NCI-H522 = system: NCI-H522
DLD-1 = system: DLD-1
NCI-H460 = system: NCI-H460
CAKI-1 = system: CAKI-1
SW-620 = system: SW-620
HOP-62 = system: HOP-62
UACC-62 = system: UACC-62
A549 = system: A549
K562 = system: K562
HOP-92 = system: HOP-92
NCI/ADR-RES = system: NCI/ADR-RES
TK-10 = system: TK-10
CCRF-CEM = system: CCRF-CEM
DMS-273 = system: DMS-273
RXF 631 = system: RXF 631
MCF7 = system: MCF7
HT-29 = system: HT-29
DU-145 = system: DU-145
NCI-H23 = system: NCI-H23
UACC-257 = system: UACC-257
RPMI-8226 = system: RPMI-8226
LOX IMVI = system: LOX IMVI
EKVX = system: EKVX
SK-MEL-2 = system: SK-MEL-2
SF-268 = system: SF-268
SF-295 = system: SF-295
Hs-578T = system: Hs-578T
SNB-75 = system: SNB-75

SMILES: CCCN(CCCCC(NC(C)=O)C(=O)NCc1ccccc1)C(=O)N(CCCl)N=O (centres undefined)
- GI50 (OVCAR-5): > 100 µM (inactive)
- GI50 (SK-MEL-28): > 100 µM (inactive)
- GI50 (Malme-3M): > 100 µM (inactive)
- GI50 (M14): 59.6 µM (inactive)
- GI50 (BT-549): 75.7 µM (inactive)
- GI50 (HL-60): 22.3 µM (inactive)
- GI50 (OVCAR-8): > 89.7 µM (inactive)
- GI50 (SK-MEL-5): > 77.8 µM (inactive)
- GI50 (SF-539): 8.55 µM (inactive)
- GI50 (A498): > 86.9 µM (inactive)
- GI50 (HCT-15): > 100 µM
- GI50 (RXF 393): 66.1 µM (inactive)
- GI50 (MDA-N): > 100 µM (inactive)
- GI50 (SK-OV-3): > 100 µM (inactive)
- GI50 (NCI-H226): > 77.8 µM (inactive)
- GI50 (KM-20L2): > 100 µM (inactive)
- GI50 (UO-31): 84.1 µM (inactive)
- GI50 (HCT-116): 60.3 µM (inactive)
- GI50 (XF498): > 100 µM (inactive)
- GI50 (HOP-18): > 100 µM (inactive)
- GI50 (OVCAR-3): > 100 µM (inactive)
- GI50 (LXFL 529): > 100 µM (inactive)
- GI50 (SN12C): 58.3 µM (inactive)
- GI50 (SR): 19.3 µM (inactive)
- GI50 (HCC 2998): > 58.9 µM (inactive)
- GI50 (DMS-114): 98.2 µM (inactive)
- GI50 (MDA-MB-435): > 100 µM (inactive)
- GI50 (COLO 205): > 90.2 µM (inactive)
- GI50 (786-0): 2.33 µM (inactive)
- GI50 (ACHN): 25.8 µM (inactive)
- GI50 (SNB-78): > 100 µM (inactive)
- GI50 (PC-3): 32.8 µM (inactive)
- GI50 (OVCAR-4): > 100 µM (inactive)
- GI50 (U-251): 15.8 µM (inactive)
- GI50 (KM12): > 100 µM (inactive)
- GI50 (MOLT-4): 36.3 µM (inactive)
- GI50 (SNB-19): 31.9 µM (inactive)
- GI50 (IGROV-1): > 92.3 µM (inactive)
- GI50 (T47D): 78.9 µM (inactive)
- GI50 (MDA-MB-231): > 100 µM (inactive)
- GI50 (M19-MEL): > 82.6 µM (inactive)
- GI50 (NCI-H522): > 82.2 µM (inactive)
- GI50 (DLD-1): > 68.9 µM (inactive)
- GI50 (NCI-H460): 10.1 µM (inactive)
- GI50 (CAKI-1): > 79.8 µM (inactive)
- GI50 (SW-620): > 97.1 µM (inactive)
- GI50 (HOP-62): 25.5 µM (inactive)
- GI50 (UACC-62): 11.7 µM (inactive)
- GI50 (A549): 32.3 µM (inactive)
- GI50 (K562): 65.2 µM (inactive)
- GI50 (HOP-92): 43.8 µM (inactive)
- GI50 (NCI/ADR-RES): 31.6 µM (inactive)
- GI50 (TK-10): > 100 µM (inactive)
- GI50 (CCRF-CEM): 54.6 µM (inactive)
- GI50 (DMS-273): 72.6 µM (inactive)
- GI50 (RXF 631): > 100 µM (inactive)
- GI50 (MCF7): 40 µM (inactive)
- GI50 (HT-29): > 96.6 µM (inactive)
- GI50 (DU-145): 27.2 µM (inactive)
- GI50 (NCI-H23): 49.9 µM (inactive)
- GI50 (UACC-257): > 100 µM (inactive)
- GI50 (RPMI-8226): 98.2 µM (inactive)
- GI50 (LOX IMVI): 22.9 µM (inactive)
- GI50 (EKVX): > 100 µM (inactive)
- GI50 (SK-MEL-2): > 100 µM (inactive)
- GI50 (SF-268): 9.46 µM (inactive)
- GI50 (SF-295): 20.9 µM (inactive)
- GI50 (Hs-578T): 42.1 µM (inactive)
- GI50 (SNB-75): 27.1 µM (inactive)
